pIC50: −log10 of the molar value.
Key:
[1] = test system: HeLa cells (cervical cancer); assay: Cell proliferation measurement (Cell Titer Glo), HeLa; assay type: cell-based; conditions: Homo sapiens, 72 h treatment, read-out: Anti-proliferation IC50 HeLa (Cervical cancer)
Procedure, shortened: (§1)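 Cells (1000/well; 500 for HeLa) plated overnight at 37 °C, then exposed to a ≥10-point compound dilution series for 72 h at 37 °C, DMSO 0.3% final as vehicle. Viability read by CellTiter-Glo luminescence; IC50 from 4-parameter fit against untreated wells.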

[2] = test system: SK-MEL-3 (melanoma); assay: Cell proliferation measurement (Cell Titer Glo), SK-MEL-3; assay type: cell-based; conditions: Homo sapiens, SK-MEL3, SK-MEL-3 cells, 72 h treatment, read-out: Anti-proliferation IC50 SK-MEL-3 (melanoma)
Procedure, shortened: as §1

[3] = test system: IGR-37 (melanoma); assay: Cell proliferation measurement (Cell Titer Glo), IGR-37; assay type: cell-based; conditions: Homo sapiens, IGR-37 cells, 72 h treatment, read-out: Anti-proliferation IC50 IGR-37 (melanoma)
Description: The antiproliferative activity of the compounds of the general formula (I) was examined in vitro in human cancer cells. For this purpose, 1000 cells (or 500 HeLa cells) were plated in 384-well plates with appropriate growth medium and incubated at 37° C. overnight. After 24 h, the cells on the test plate were treated with the compounds of the general formula (I) as and incubated at 37° C. for 72 h. The compounds were added to the cells by means of an HP D300 digital dispenser in a 10 (or more)-step dilution series. As control, the cells were treated with vehicle (DMSO at 0.3% final concentration). After 72 h, the cells were treated with 20 μl/well of 50% CTG solution in PBS (Promega Cell Titer Glo (catalogue #G755B and G756B)) and incubated at room temperature for 10 min, and luminescence was measured by means of a VICTOR V (Perkin Elmer), in order to determine cell viability at the end of treatment. The percentage effect on cell growth and the IC50 derived therefrom were determined for each test substance using the values from untreated wells (=percent viability). The IC50 values were calculated using a 4-parameter fit.

[4] = biological target: T1, human full length PDE3A (Homo sapiens, UniProt Q14432); assay: PDE3A enzyme inhibition (3H-cAMP Scintillation Proximity Assay); assay type: biochemical; conditions: PDE3A cell extract from Sf9 cells, 60 min room temperature; read-out: Target IC50 PDE3A IC50
T1 construct: Sf9 cells overexpressing human full length PDE3A; purchased SB Drug Discovery, UK; host or cells: Sf9 cells (cell extract)
Procedure, shortened: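 Sf9 cell extract overexpressing human full-length PDE3A, diluted for linear kinetics (<70% substrate used), in 50 mM Tris/HCl pH 7.5, 8.3 mM MgCl2, 1.7 mM EDTA, 0.2% BSA. [8-3H]cAMP substrate, 60 min at room temperature, yttrium SPA bead read-out; IC50 from sigmoidal curves of % activity.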

[5] = biological target: T2, human full length PDE3B (Homo sapiens, UniProt Q13370); assay: PDE3B enzyme inhibition (3H-cAMP Scintillation Proximity Assay); assay type: biochemical; conditions: PDE3B cell extract from Sf9 cells, 60 min room temperature; read-out: Target IC50 PDE3B IC50
T2 construct: Sf9 cells overexpressing human full length PDE3B; purchased SB Drug Discovery, UK; host or cells: Sf9 cells (cell extract)
Procedure, shortened: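 SPA with Sf9 cell extract overexpressing human full-length PDE3B, diluted for linear kinetics and <70% substrate turnover, in 50 mM Tris/HCl pH 7.5, 8.3 mM MgCl2, 1.7 mM EDTA, 0.2% BSA. [8-3H]cAMP substrate, 60 min at room temperature, stopped with yttrium SPA beads. IC50 from sigmoidal fit of % activity vs log concentration.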

T1 sequence (Q14432 whole entry): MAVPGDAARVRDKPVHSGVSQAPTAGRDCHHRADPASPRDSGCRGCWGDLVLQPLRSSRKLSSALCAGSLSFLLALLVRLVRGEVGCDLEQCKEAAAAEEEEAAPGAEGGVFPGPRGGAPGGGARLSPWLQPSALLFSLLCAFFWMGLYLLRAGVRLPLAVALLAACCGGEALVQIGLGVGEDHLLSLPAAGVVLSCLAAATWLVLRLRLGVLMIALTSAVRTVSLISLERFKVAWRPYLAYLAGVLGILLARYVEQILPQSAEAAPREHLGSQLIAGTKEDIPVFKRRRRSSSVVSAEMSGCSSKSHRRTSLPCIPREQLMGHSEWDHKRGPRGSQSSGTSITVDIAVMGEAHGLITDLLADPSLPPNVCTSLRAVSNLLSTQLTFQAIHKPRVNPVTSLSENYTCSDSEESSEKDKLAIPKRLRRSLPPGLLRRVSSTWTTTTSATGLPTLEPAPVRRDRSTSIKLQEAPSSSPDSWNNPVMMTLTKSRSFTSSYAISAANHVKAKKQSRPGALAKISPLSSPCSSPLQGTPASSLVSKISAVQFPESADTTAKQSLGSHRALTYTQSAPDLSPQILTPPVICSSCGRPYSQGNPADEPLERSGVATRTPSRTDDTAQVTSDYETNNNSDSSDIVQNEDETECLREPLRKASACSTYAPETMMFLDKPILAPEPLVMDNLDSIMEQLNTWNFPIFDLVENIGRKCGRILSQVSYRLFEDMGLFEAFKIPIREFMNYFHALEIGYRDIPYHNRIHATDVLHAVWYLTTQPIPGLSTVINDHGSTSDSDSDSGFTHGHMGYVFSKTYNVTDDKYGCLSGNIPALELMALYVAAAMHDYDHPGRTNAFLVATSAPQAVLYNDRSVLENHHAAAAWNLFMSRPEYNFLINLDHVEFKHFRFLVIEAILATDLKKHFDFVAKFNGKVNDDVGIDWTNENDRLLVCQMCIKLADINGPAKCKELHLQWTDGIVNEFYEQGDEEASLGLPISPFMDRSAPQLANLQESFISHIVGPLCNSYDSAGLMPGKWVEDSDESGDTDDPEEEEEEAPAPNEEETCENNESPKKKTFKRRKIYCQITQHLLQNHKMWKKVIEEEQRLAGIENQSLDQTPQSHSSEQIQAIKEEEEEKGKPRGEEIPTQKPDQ
T2 sequence (Q13370 whole entry): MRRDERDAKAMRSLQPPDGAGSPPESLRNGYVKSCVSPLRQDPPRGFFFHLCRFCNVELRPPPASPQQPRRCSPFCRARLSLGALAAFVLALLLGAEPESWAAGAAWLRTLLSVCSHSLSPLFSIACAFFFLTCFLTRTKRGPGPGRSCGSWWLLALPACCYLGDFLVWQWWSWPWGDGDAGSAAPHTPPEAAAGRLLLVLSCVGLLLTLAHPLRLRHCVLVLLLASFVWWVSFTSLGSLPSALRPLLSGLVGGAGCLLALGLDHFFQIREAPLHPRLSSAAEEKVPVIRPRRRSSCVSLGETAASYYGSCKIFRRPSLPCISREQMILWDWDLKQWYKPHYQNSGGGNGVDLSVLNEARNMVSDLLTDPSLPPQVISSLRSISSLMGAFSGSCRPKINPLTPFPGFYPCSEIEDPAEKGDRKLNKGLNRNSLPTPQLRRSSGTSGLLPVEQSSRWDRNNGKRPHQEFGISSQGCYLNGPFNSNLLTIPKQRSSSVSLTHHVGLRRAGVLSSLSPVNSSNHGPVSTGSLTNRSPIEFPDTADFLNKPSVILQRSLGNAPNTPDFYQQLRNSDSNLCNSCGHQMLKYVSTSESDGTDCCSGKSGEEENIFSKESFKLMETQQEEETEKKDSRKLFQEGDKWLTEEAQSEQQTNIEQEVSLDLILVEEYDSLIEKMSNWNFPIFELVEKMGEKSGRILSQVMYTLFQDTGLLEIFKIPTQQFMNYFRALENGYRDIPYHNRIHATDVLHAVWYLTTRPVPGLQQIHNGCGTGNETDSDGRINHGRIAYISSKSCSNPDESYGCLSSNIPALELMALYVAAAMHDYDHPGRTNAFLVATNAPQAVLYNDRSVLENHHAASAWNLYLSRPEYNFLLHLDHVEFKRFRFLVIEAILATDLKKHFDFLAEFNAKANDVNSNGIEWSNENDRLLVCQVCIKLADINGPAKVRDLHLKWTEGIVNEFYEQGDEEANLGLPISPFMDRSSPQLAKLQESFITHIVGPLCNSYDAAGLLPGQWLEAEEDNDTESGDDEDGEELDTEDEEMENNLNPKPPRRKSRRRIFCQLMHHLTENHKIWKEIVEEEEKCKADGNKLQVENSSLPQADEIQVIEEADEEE

Compound | pIC50 [1] | pIC50 [2] | pIC50 [3] | pIC50 [4] | pIC50 [5]
O=C1CCC(c2ccc(N3CCC(F)(F)C3)c(C(F)(F)F)c2)=NN1 [Example 22, 6-[4-(3,3-Difluoropyrrolidin-1-yl)-3-(trifluoromethyl)phenyl]-4,5-dihydropyridazin-3(2H)-one] | 8.28 | 6.14 | 8.05 | 6.80 | 6.83
Cc1ccc(-c2ccc(C3=NNC(=O)CC3)cc2C)cc1F [Example 107, 6-(3′-fluoro-2,4′-dimethyl[1,1′-biphenyl]-4-yl)-4,5-dihydropyridazin-3(2H)-one] | 8.03 | 7.28 |  | 6.57 | 6.72
Cc1cc(C2=NNC(=O)CC2)ccc1-c1ccc(Cl)c(N)c1 [Example 108, 6-(3′-amino-4′-chloro-2-methyl[1,1′-biphenyl]-4-yl)-4,5-dihydropyridazin-3(2H)-one] | 8.18 | 7.75 |  | 6.80 | 6.68
Cc1cc(C2=NNC(=O)CC2)ccc1-c1ccccc1F [Example 109, 6-(2′-fluoro-2-methyl[1,1′-biphenyl]-4-yl)-4,5-dihydropyridazin-3(2H)-one] | 8.25 | 7.85 |  | 6.82 | 6.82
Cc1cc(C2=NNC(=O)CC2)ccc1-c1c(F)cccc1F [Example 110, 6-(2′,6′-difluoro-2-methyl[1,1′-biphenyl]-4-yl)-4,5-dihydropyridazin-3(2H)-one] | 8.07 | 7.41 |  | 6.62 | 6.59
COc1ccccc1-c1ccc(C2=NNC(=O)CC2)cc1C [Example 111, 6-(2′-methoxy-2-methyl[1,1′-biphenyl]-4-yl)-4,5-dihydropyridazin-3(2H)-one] | 7.40 | < 7.00 |  | 7.38 | 7.49
Cc1cc(C2=NNC(=O)CC2)ccc1-c1cccc(F)c1 [Example 112, 6-(3′-fluoro-2-methyl[1,1′-biphenyl]-4-yl)-4,5-dihydropyridazin-3(2H)-one] | 7.86 | 7.24 |  | 6.85 | 6.96
COc1cccc(-c2ccc(C3=NNC(=O)CC3)cc2C)c1 [Example 113, 6-(3′-methoxy-2-methyl[1,1′-biphenyl]-4-yl)-4,5-dihydropyridazin-3(2H)-one] | 7.48 | < 7.00 |  | 7.06 | 7.04
Cc1cc(C2=NNC(=O)CC2)ccc1-c1cccc(C(N)=O)c1 [Example 114, 2′-methyl-4′-(6-oxo-1,4,5,6-tetrahydropyridazin-3-yl)[1,1′-biphenyl]-3-carboxamide] | 7.33 | < 7.00 |  | 7.44 | 7.28
Cc1cc(C2=NNC(=O)CC2)ccc1-c1ccc(N)cc1 [Example 115, 6-(4′-amino-2-methyl[1,1′-biphenyl]-4-yl)-4,5-dihydropyridazin-3(2H)-one] | 8.10 | 7.43 |  | 7.33 | 7.10
Cc1ccccc1-c1ccc(C2=NNC(=O)CC2)cc1C [Example 116, 6-(2,2′-dimethyl[1,1′-biphenyl]-4-yl)-4,5-dihydropyridazin-3(2H)-one] | 8.08 | 7.37 |  | 6.66 | 6.77
CCc1ccccc1-c1ccc(C2=NNC(=O)CC2)cc1C [Example 117, 6-(2′-ethyl-2-methyl[1,1′-biphenyl]-4-yl)-4,5-dihydropyridazin-3(2H)-one] | 7.29 | < 7.00 |  | 6.27 | 6.36
COc1ccc(-c2ccc(C3=NNC(=O)CC3)cc2C)cn1 [Example 118, 6-[4-(6-methoxypyridin-3-yl)-3-methylphenyl]-4,5-dihydropyridazin-3(2H)-one] | 7.26 | < 7.00 |  | 7.12 | 7.05
Cc1cc(-c2ccc(C3=NNC(=O)CC3)cc2C)ccc1F [Example 119, 6-(4′-fluoro-2,3′-dimethyl[1,1′-biphenyl]-4-yl)-4,5-dihydropyridazin-3(2H)-one] | 7.18 | < 7.00 |  | 6.54 | 6.54

Other lines, results leading:

pIC50 [1] | pIC50 [2] | pIC50 [3] | pIC50 [4] | pIC50 [5] | Compound
8.36 | 8.06 | 8.04 | 7.05 | 7.07 | O=C1CCC(c2ccc(NCC(O)C(F)(F)F)c(C(F)(F)F)c2)=NN1 (racemic) [Example 130, 6-[4-{[3,3,3-trifluoro-2-hydroxypropyl]amino}-3-(trifluoromethyl)phenyl]-4,5-dihydropyridazin-3(2H)-one (racemic)]
7.34 | < 7.00 |  | 6.70 | 6.74 | Cc1cccc(-c2ccc(C3=NNC(=O)CC3)cc2C)c1 [Example 120, 6-(2,3′-dimethyl[1,1′-biphenyl]-4-yl)-4,5-dihydropyridazin-3(2H)-one]
8.15 | 7.47 |  | 6.64 | 6.64 | Cc1ccc(-c2ccc(C3=NNC(=O)CC3)cc2C)cc1 [Example 121, 6-(2,4′-dimethyl[1,1′-biphenyl]-4-yl)-4,5-dihydropyridazin-3(2H)-one]
8.57 | 8.00 |  | 6.55 | 6.70 | Cc1cc(C2=NNC(=O)CC2)ccc1-c1ccc(Cl)cc1 [Example 122, 6-(4′-chloro-2-methyl[1,1′-biphenyl]-4-yl)-4,5-dihydropyridazin-3(2H)-one]
7.10 | < 7.00 | 6.56 |  | < 6.00 | O=C1CCC(c2ccc(N3CCOCC3)cc2)=NN1 [Example 123, 6-[4-(morpholin-4-yl)phenyl]-4,5-dihydropyridazin-3(2H)-one]
8.16 | 7.77 | 7.48 | 7.23 | 7.14 | O=C1CCC(c2cc(Cl)c(N3CCOCC3)c(Cl)c2)=NN1 [Example 124, 6-[3,5-dichloro-4-(morpholin-4-yl)phenyl]-4,5-dihydropyridazin-3(2H)-one]
7.80 | 7.44 | 7.26 | 6.20 | 6.47 | O=C1CCC(c2ccc(Cl)c(Cl)c2)=NN1 [Example 125, 6-(3,4-Dichlorophenyl)-4,5-dihydropyridazin-3(2H)-one]
8.28 | 8.15 |  | 7.23 | 7.02 | O=C1CCC(c2ccc(N3CCOCC3)c(C(F)(F)F)c2)=NN1 [Example 126, 6-[4-(Morpholin-4-yl)-3-(trifluoromethyl)phenyl]-4,5-dihydropyridazin-3(2H)-one]
8.75 | 8.44 | 8.27 | 7.14 | 7.11 | O=C1CCC(c2ccc(-c3cnn(C(F)F)c3)c(C(F)(F)F)c2)=NN1 [Example 127, 6-{4-[1-(difluoromethyl)-1H-pyrazol-4-yl]-3-(trifluoromethyl)phenyl}-4,5-dihydropyridazin-3(2H)-one]
8.11 | 7.82 | 7.46 | 6.62 | 6.68 | O=C1CCC(c2ccc(-c3ccc(F)cc3)c(C(F)(F)F)c2)=NN1 [Example 128, 6-[4′-fluoro-2-(trifluoromethyl)[1,1′-biphenyl]-4-yl]-4,5-dihydropyridazin-3(2H)-one]

— patent US11897867B2, “6-phenyl-4,5-dihydropyridazin-3(2H)-one derivatives as PDE3A and PDE3B inhibitors for treating cancer” (Bayer Aktiengesellschaft, priority 2017, dated 2024)
